According to ChEMBL document CHEMBL1649499, “Nine-hospital study comparing broth microdilution and Etest method results for vancomycin and daptomycin against methicillin-resistant Staphylococcus aureus” (2009):
In brackets after ≈: the same amount, converted by molar mass.

Experiments:
Staphylococcus aureus [1] = test: Antibacterial activity against methicillin-resistant Staphylococcus aureus by broth microdilution method; assay type: functional
Staphylococcus aureus [2] = test: Antibacterial activity against methicillin-resistant Staphylococcus aureus by Etest method; assay type: functional

Row | Structure (SMILES) | MIC (Staphylococcus aureus [1]) [µg/mL] | MIC (Staphylococcus aureus [2]) [µg/mL]
1 | CCCCCCCCCC(=O)N[C@@H](Cc1c[nH]c2ccccc12)C(=O)N[C@H](CC(N)=O)C(=O)N[C@@H](CC(=O)O)C(=O)N[C@@H]1C(=O)NCC(=O)N[C@@H](CCCN)C(=O)N[C@@H](CC(=O)O)C(=O)N[C@H](C)C(=O)N[C@@H](CC(=O)O)C(=O)NCC(=O)N[C@H](CO)C(=O)N[C@@H]([C@H](C)CC(=O)O)C(=O)N[C@@H](CC(=O)c2ccccc2N)C(=O)O[C@@H]1C | ≤ 0.25 | 0.38 (≈ 0.234 µM)
2 | CN[C@H](CC(C)C)C(=O)N[C@H]1C(=O)N[C@@H](CC(N)=O)C(=O)N[C@H]2C(=O)N[C@H]3C(=O)N[C@H](C(=O)N[C@H](C(=O)O)c4cc(O)cc(O)c4-c4cc3ccc4O)[C@H](O)c3ccc(c(Cl)c3)Oc3cc2cc(c3O[C@@H]2O[C@H](CO)[C@@H](O)[C@H](O)[C@H]2O[C@H]2C[C@](C)(N)[C@H](O)[C@H](C)O2)Oc2ccc(cc2Cl)[C@H]1O [VANCOMYCIN] | > 1 | –
